Source: PubChem BioAssay (NCI)
“And” between values parts separate entries of the source, which are not always exact repeats. Equal entries are not always repeated.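 Tested at 5 concentrations; 48 h exposure; 96-well plates; endpoints linearly interpolated, else capped at highest concentration. GI50: concentration for 50% inhibition of growth. The concentration for full growth arrest is given as TGI.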

Key:
Assay in all cases: DTP human tumour cell line panel, 48 h
UACC-257 melanoma = system: UACC-257 melanoma
M14 melanoma = system: M14 melanoma
RPMI-8226 leukemia = system: RPMI-8226 leukemia
SK-MEL-5 melanoma = system: SK-MEL-5 melanoma
RXF 393 renal = system: RXF 393 renal
CAKI-1 renal = system: CAKI-1 renal
TK-10 renal = system: TK-10 renal
MOLT-4 leukemia = system: MOLT-4 leukemia
SK-MEL-28 melanoma = system: SK-MEL-28 melanoma
NCI-H460 lung = system: NCI-H460 lung

Structure (SMILES) | GI50 (UACC-257 melanoma) | TGI (UACC-257 melanoma) | GI50 (M14 melanoma) | TGI (M14 melanoma) [µM] | GI50 (RPMI-8226 leukemia) | TGI (RPMI-8226 leukemia) | GI50 (SK-MEL-5 melanoma) | TGI (SK-MEL-5 melanoma) | GI50 (RXF 393 renal) | TGI (RXF 393 renal) | GI50 (CAKI-1 renal) | TGI (CAKI-1 renal) [µM] | GI50 (TK-10 renal) | TGI (TK-10 renal) [µM] | GI50 (MOLT-4 leukemia) | TGI (MOLT-4 leukemia) [µM] | GI50 (SK-MEL-28 melanoma) | TGI (SK-MEL-28 melanoma) | GI50 (NCI-H460 lung) | TGI (NCI-H460 lung) [µM]
Cc1cc(-c2ccccn2)cc(C)c1/C=C/c1cncc(-c2nn[nH]n2)c1 | > 25 µM | > 25 µM | > 25 µM | > 25 | > 25 µM | > 25 µM | > 25 µM | > 25 µM | > 25 µM | > 25 µM | > 25 µM | > 25 | > 25 µM | > 25 | > 25 µM | > 25 | > 25 µM | > 25 µM | > 25 µM | > 25
N#Cc1cc(S(=O)(=O)Nc2nnc(-c3ccccc3)c(-c3ccccc3)n2)c(SCc2ccccc2)cc1Cl | 24.2 µM | 46.4 µM | 27.4 µM | 80.4 | 16.4 µM | 51.9 µM | 23 µM | 51.4 µM | 6.31 µM | 22.7 µM | 21.3 µM | 42.1 | 22.9 µM | 46.2 | 9.82 µM | > 100 | 35.2 µM | 91.3 µM | 38.7 µM | > 100
CCOC(=O)C(CC/C=C\c1ccccc1)N1CCC[C@H]1C(=O)OC (stereo not given in full) |  | > 100 µM |  | > 100 |  | > 100 µM |  | > 100 µM |  | > 100 µM |  | > 100 |  | > 100 |  | > 100 |  | > 100 µM |  | > 100
Oc1ccc(C2c3ccccc3Oc3ccccc32)c2cccnc12 | 2.76 µM | > 100 µM | 1.34 µM | 4.21 | 1.7 µM | > 100 µM | 1.62 µM | 8.66 µM | 1.68 µM | 7.1 µM | 0.568 µM | > 100 | 1.09 µM | > 100 | 1.96 µM | > 100 | 5.12 µM | > 100 µM | 0.47 µM | 5.1
O=C1c2ccccc2-c2c1c1c(O)cccc1n2Cc1ccccn1 | 23.1 µM | 60.4 µM | 70.7 µM | > 100 | 19.9 µM | > 100 µM | 8.77 µM | > 100 µM | 45.7 µM | > 100 µM | 20.4 µM | > 100 | 28.9 µM | 93.2 | 91.4 µM | > 100 | > 100 µM | > 100 µM | 52.1 µM | > 100
CC(CN(C)C)Oc1ccccc1NC1=C(Cl)C(=O)C(Nc2ccccc2OC(C)CN(C)C)=C(Cl)C1=O (stereo not given) | 1.16 µM | 2.53 µM | 1.38 µM | 2.83 | 0.372 µM | 1.95 µM | 1.56 µM | 2.94 µM | 0.663 µM | 2.03 µM | 1.34 µM | 2.72 | 0.479 µM | 0.974 | 0.195 µM | 0.51 | 1.5 µM | 2.87 µM | 1.3 µM | 2.9
O=C(/C=C/C12c3ccccc3C(c3ccccc31)C1C(=O)NC(=O)C12)c1ccc(F)cc1 (stereo not given) | 1.79 µM | 3.37 µM | 1.92 µM | 3.96 | 1.62 µM | 4.39 µM | 1.72 µM | 3.16 µM | 1.77 µM | 3.3 µM | 1.87 µM | 4.37 | 2.69 µM | 6.43 | 0.457 µM | 2.9 | 1.85 µM | 3.39 µM | 2.04 µM | 5.05
Cc1cccc(C(C)(C)C)c1NC(=O)CCc1nc(=S)[nH][nH]1 |  | > 100 µM |  | > 100 |  | > 100 µM |  | > 100 µM |  | > 100 µM |  | > 100 |  | > 100 |  | > 100 |  | > 100 µM |  | > 100
CCc1ccc(C(=Nc2ccc(N(C)C(=O)CN3CCN(C)CC3)cc2)c2c(O)[nH]c3ccc(C(=O)OC)cc23)cc1 | 1.54 µM | 3.2 µM | 0.368 µM | 1.69 | 0.424 µM | 1.67 µM | 1.2 µM | 2.47 µM | 0.22 µM | 1.2 µM | 0.135 µM | 1.48 | 0.233 µM | 2.11 | 0.176 µM | 0.908 | 1.17 µM | 2.42 µM | 0.748 µM | 2.21
CCn1c(-c2nonc2N)nc2c(C#CC(C)(C)O)ncc(OC[C@H]3CCCNC3)c21 | 20.8 µM | 41.2 µM | 14.8 µM | 37.7 | 17.4 µM | 50.5 µM | 14.3 µM | 31.2 µM | 0.228 µM | 11.6 µM | 32.7 µM | > 100 | 2.03 µM | 42.6 | 0.23 µM | 31.5 | 11.7 µM | 27.1 µM | 10.6 µM | 28.5
O=C(O)c1c(=O)cccc2ssc12 | 2.02 µM | 4.19 µM | 1.92 µM | 4.07 | 2.19 µM | 5.66 µM | 2.41 µM | 5.85 µM | 1.91 µM | 3.39 µM | 12 µM | 24.6 | 1.75 µM | 3.23 | 2.13 µM | 5.11 | 1.69 µM | 3.25 µM | 1.96 µM | 4.13
CCCCCCCCCNC(=O)/C=C/c1ccc(O)c(O)c1 | 29.5 µM | 69.6 µM | 12.2 µM | 26.7 | 0.61 µM | 19.4 µM | 1.34 µM | 10.8 µM | 19.2 µM | 50.9 µM | 3.91 µM | 24.2 | 11.1 µM | 39.7 | 0.474 µM | 17.4 | 19.7 µM | > 100 µM | 14.1 µM | 57.1
CN1CCN(c2ccc(NC(=O)c3cncnc3Nc3ccc(OCc4ccccn4)c(Cl)c3)cc2)CC1 | 0.718 µM | 1.61 µM | 0.65 µM | 1.4 | 1.33 µM | 6.7 µM | 1.77 µM | 6.01 µM | 1.93 µM | 6.71 µM | 4.78 µM | 11.7 | 6.78 µM | 15.3 | 1.64 µM | 9.42 | 0.749 µM | 1.64 µM | 2.27 µM | 7.57
Oc1c(Cl)cc(Cl)cc1C(c1cc(Cl)cc(Cl)c1O)C(Cl)(Cl)Cl | 3.33 µM | 9.18 µM | 3.11 µM | 10.1 | 1.8 µM | 54.2 µM | 1.21 µM | 2.73 µM | 2.38 µM | 6.66 µM | 0.472 µM | 2.06 | 4.26 µM | 16 | 3.67 µM | 10.4 | 4.18 µM | 17.8 µM | 2.01 µM | 9.38
O=C1/C(=C/c2ccc(Cl)cc2)CCC/C1=C\c1ccc(Cl)cc1 | 4.17 µM | > 100 µM | 3.04 µM | 8.7 | 2.1 µM | 6.32 µM | 4.26 µM | > 100 µM | 1.95 µM | 3.66 µM | > 100 µM | > 100 | 6.81 µM | > 100 | 4.09 µM | > 100 | 5.8 µM | > 100 µM | 6.93 µM | > 100
O=C(Nc1cccc(-c2ccc(Cl)c(C(F)(F)F)c2)c1)C1CCN(Cc2cccc3cccnc23)CC1 | 1.83 µM | 3.62 µM | 1.64 µM | 3.16 | 2.07 µM | 5.4 µM | 1.53 µM | 2.89 µM | 1.27 µM | 2.61 µM | 1.61 µM | 2.97 | 1.63 µM | 3.16 | 1.79 µM | 4.52 | 1.75 µM | 3.14 µM | 1.87 µM | 3.55
CSc1snc2sc3c(Cl)nnnc3c12 |  | 26.8 µM |  | 26.3 |  | 56.2 µM |  | 30.7 µM |  | 25.1 µM |  | 15.9 |  | 30.9 |  | 11.4 |  | 23.2 µM |  | 32.8
CCC(=O)Nc1ccc(C)c(-c2ccc(C(=O)NCC3CC3)cc2)c1 | > 25 µM | > 25 µM | > 25 µM | > 25 | > 25 µM | > 25 µM | > 25 µM | > 25 µM | > 25 µM | > 25 µM | > 25 µM | > 25 | > 25 µM | > 25 | > 25 µM | > 25 | > 25 µM | > 25 µM | > 25 µM | > 25
O=C(O/N=C1/CCC/C1=C\c1ccccc1)c1ccc(Cl)c(Cl)c1 |  | > 100 µM |  | > 100 |  | > 100 µM |  | > 100 µM |  | > 100 µM |  | > 100 |  | > 100 |  | > 100 |  | > 100 µM |  | > 100
Cc1cn2c(/C=N/N=C(N)N)c(-c3ccccn3)nc2s1 | 7.78 µM | 17.9 µM | 19.6 µM | > 52.1 | 7.53 µM | > 84.7 µM | 7.95 µM | 25.8 µM | 5.9 µM | 18.1 µM | 20.8 µM | 41.7 | 16.1 µM | 32.8 | 8.67 µM | > 100 | 11.6 µM | 36.9 µM | 14.9 µM | > 75.6
Cc1ccc(NS(=O)(=O)c2cccc(C#N)c2)c2[nH]cc(C#N)c12 | 21.9 µM and 22.5 µM | 69.1 µM and 84.7 µM | 20 µM and 16.3 µM | > 100 | 18.1 µM and 10.5 µM | 76.6 µM and 52.2 µM | 15.6 µM and 17 µM | 33.5 µM and 43.3 µM | 17.6 µM and 1.99 µM | 74.3 µM and 68.1 µM | 3.69 µM and 15.7 µM | > 96.8 | 24.6 µM and 22.4 µM | > 92.5 | 8.87 µM and 13.6 µM | > 100 | 20.2 µM and 7.55 µM | 98.5 µM and > 44.9 µM | 18.1 µM and 22.6 µM | > 100
